PMC11235165, “Delocalized quinolinium-macrocyclic peptides, an atypical chemotype for CNS penetration” (Science Advances, 2024)
Where two headings read alike, the source gives them in different places.

Legend:
[1] = biological target: Cyclophilin A (CypA) (Homo sapiens, UniProt P62937); assay: Fluorescence polarization cyclophilin A binding assay
Description: (§1) This was determined using a fluorescence polarization assay ([12]).
Fluorescence Polarization assay.
(§2) Briefly, titration of a single probe concentration
measure binding affinities.
FP -probe. Enzyme, inhibitor and
(ph7.4)) supplemented with 1 mM PMSF.

[2] = system: mitochondrial permeability transition pore (mPTP); assay: Calcium retention capacity (CRC) assay in isolated liver mitochondria; type: biochemical, rat; conditions: Table S4 / Fig. S2; rat liver mitochondria; 500 nM; (Treated-NonTreated)/NonTreated)*100
[3] = biological target: CypD (Homo sapiens, UniProt P30405); assay: Fluorescence polarization cyclophilin D binding assay
Description: as §1
Fluorescence Polarization assay.
as §2
measure binding affinities.

[4] = in vivo; conditions: ABH, mouse, ip, 10 mg/kg; for level at 24 h: Brain concentrations at 24 hours
Description: (§3) The remaining five compounds were evaluated for plasma and brain levels in a pharmacokinetic experiment in mice.
Pharmacokinetic analysis.
(Cyprotex UK) using LCMSMS.

[5] = Hepatocyte clearance (mouse); type: in vitro ADME; conditions: mouse hepatocytes
[6] = biological target: hERG (Homo sapiens, UniProt Q12809); assay: hERG inhibition; type: biochemical; conditions: for inhibition at 25 µM: hERG (% inhibition at 25 μM)
[7] = mouse, in vivo, 10 mg/kg; for Cl_obs: ip
Description: as §3
Pharmacokinetic analysis.
(Cyprotex UK) using LCMSMS.

[8] = Plasma protein binding (fraction unbound); type: in vitro ADME; conditions: read-out: Plasma protein (fu)
[9] = mouse, in vivo, ip, 10 mg/kg
Description: as §3
Pharmacokinetic analysis.
(Cyprotex UK) using LCMSMS.

[10] = Hepatocyte clearance (human); type: in vitro ADME; conditions: human hepatocytes
[11] = Brain tissue binding (fraction unbound); type: in vitro ADME; conditions: read-out: Brain tissue (fu)
Text: Table 1. Key data for lead optimization. SD, standard deviation of the mean; SE, standard error of the mean; fu, fraction unbound; ND, not determined. | column: Brain tissue (fu)

[12] = Pharmacokinetic study, plasma and brain levels by LC-MS/MS; conditions: mice; for level at 1 h / level at 4 h: ABH, mouse, ip;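 on all read-outs here: ABH mice, four per group, dosed intraperitoneally, plasma and brain taken at set times after euthanasia, drug levels quantified by LC-MS/MS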
Description: as §3
Pharmacokinetic analysis.
(Cyprotex UK) using LCMSMS.

[13] = Table S2, 4-oxa substituted and O-linked quinolinium salts, fluorescence polarization, read-out: Ki (nM), Cyclophilin A binding affinity
[14] = Table S7, focused SAR set, read-out: CypD Ki
[15] = Table S3, 4-aza substituted quinolinium salts, fluorescence polarization, read-out: Ki (nM) CypA
[16] = Table S7, focused SAR set, read-out: CypA Ki

Sequence of CypD (P30405 30-207): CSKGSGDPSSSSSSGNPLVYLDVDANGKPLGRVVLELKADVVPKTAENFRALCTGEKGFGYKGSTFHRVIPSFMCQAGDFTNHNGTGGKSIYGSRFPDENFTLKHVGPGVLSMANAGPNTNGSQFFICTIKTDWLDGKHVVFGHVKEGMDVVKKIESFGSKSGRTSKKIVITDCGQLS
Sequence of hERG (Q12809 whole entry): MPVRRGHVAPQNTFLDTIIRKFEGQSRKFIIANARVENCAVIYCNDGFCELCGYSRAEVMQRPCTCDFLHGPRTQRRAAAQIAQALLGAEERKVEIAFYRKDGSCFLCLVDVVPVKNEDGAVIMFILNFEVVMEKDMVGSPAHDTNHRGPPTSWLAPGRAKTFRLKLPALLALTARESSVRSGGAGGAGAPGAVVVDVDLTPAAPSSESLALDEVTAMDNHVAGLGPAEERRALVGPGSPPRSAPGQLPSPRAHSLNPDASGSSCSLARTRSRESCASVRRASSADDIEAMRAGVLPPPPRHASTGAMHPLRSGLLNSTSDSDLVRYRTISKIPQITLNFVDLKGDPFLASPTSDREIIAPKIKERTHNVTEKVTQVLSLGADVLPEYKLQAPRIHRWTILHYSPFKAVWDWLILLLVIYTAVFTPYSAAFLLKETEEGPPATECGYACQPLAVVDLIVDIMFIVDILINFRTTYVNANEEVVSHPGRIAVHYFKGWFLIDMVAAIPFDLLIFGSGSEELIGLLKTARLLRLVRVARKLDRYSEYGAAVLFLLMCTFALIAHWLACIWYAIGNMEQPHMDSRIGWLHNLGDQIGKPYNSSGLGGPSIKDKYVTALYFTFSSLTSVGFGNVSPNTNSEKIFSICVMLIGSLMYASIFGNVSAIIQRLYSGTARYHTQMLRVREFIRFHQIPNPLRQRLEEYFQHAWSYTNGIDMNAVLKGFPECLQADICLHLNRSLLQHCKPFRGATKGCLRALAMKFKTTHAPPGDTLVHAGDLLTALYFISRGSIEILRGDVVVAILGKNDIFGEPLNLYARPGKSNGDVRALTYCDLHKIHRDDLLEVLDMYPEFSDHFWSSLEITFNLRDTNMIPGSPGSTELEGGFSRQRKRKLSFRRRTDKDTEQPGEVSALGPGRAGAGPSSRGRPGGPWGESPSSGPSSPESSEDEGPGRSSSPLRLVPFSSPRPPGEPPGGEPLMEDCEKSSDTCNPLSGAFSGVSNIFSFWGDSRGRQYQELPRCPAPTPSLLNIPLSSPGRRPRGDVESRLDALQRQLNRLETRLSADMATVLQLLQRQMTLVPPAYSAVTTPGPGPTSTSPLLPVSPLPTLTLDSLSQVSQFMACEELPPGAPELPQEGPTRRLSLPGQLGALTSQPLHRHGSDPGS
Sequence of Cyclophilin A (CypA) (P62937 whole entry): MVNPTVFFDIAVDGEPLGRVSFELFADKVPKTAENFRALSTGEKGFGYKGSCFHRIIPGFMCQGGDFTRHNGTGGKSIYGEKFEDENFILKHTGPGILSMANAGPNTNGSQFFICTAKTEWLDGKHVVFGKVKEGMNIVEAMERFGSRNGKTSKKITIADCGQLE

With `CC[C@@H]1NC(=O)[C@H]([C@H](O)[C@H](C)CC=CCCC[n+]2ccc(OCCc3ccccc3)c3ccccc32)N(C)C(=O)[C@H](C(C)C)N(C)C(=O)[C@H](CC(C)C)N(C)C(=O)[C@H](CC(C)C)N(C)C(=O)[C@@H](C)NC(=O)[C@H](C)NC(=O)[C@H](CC(C)C)N(C)C(=O)[C@H](C(C)C)NC(=O)[C@H](CC(C)C)N(C)C(=O)CN(C)C1=O` [TWH30] the Ki [1, 13] was 267 ± 16 nM and the CRC inhibition % [2] was 27.89%.
For `CC[C@@H]1NC(=O)[C@H]([C@H](O)[C@H](C)CC=CCCC[n+]2ccc(N3CCCC3)c3ccc(C(F)(F)F)cc32)N(C)C(=O)[C@H](C(C)C)N(C)C(=O)[C@H](CC(C)C)N(C)C(=O)[C@H](CC(C)C)N(C)C(=O)[C@@H](C)NC(=O)[C@H](C)NC(=O)[C@H](CC(C)C)N(C)C(=O)[C@H](C(C)C)NC(=O)[C@H](CC(C)C)N(C)C(=O)CN(C)C1=O` [JP1-140], the Ki [3, 14] was 76 ± 8 nM.
`CC[C@@H]1NC(=O)[C@H]([C@H](O)[C@H](C)CC=CCCC[n+]2ccc(OCCCc3ccc(OC)cc3)c3ccccc32)N(C)C(=O)[C@H](C(C)C)N(C)C(=O)[C@H](CC(C)C)N(C)C(=O)[C@H](CC(C)C)N(C)C(=O)[C@@H](C)NC(=O)[C@H](C)NC(=O)[C@H](CC(C)C)N(C)C(=O)[C@H](C(C)C)NC(=O)[C@H](CC(C)C)N(C)C(=O)CN(C)C1=O` [TWH44] gave a Ki [1, 13] of 158 ± 17 nM and a CRC inhibition % [2] of 16.95%.
`CC[C@@H]1NC(=O)[C@H]([C@H](O)[C@H](C)CC=CCCC[n+]2ccc(N(C)Cc3ccccc3)c3ccccc32)N(C)C(=O)[C@H](C(C)C)N(C)C(=O)[C@H](CC(C)C)N(C)C(=O)[C@H](CC(C)C)N(C)C(=O)[C@@H](C)NC(=O)[C@H](C)NC(=O)[C@H](CC(C)C)N(C)C(=O)[C@H](C(C)C)NC(=O)[C@H](CC(C)C)N(C)C(=O)CN(C)C1=O` [JP1-028] gave a Ki [1, 15] of 35 ± 3 nM.
With `CC[C@@H]1NC(=O)[C@H]([C@H](O)[C@H](C)CC=CCCC[n+]2ccc(N3CCCC3)c3ccccc32)N(C)C(=O)[C@H](C(C)C)N(C)C(=O)[C@H](CC(C)C)N(C)C(=O)[C@H](CC(C)C)N(C)C(=O)[C@@H](C)NC(=O)[C@H](C)NC(=O)[C@H](CC(C)C)N(C)C(=O)[C@H](C(C)C)NC(=O)[C@H](CC(C)C)N(C)C(=O)CN(C)C1=O` [JP1-159] the Ki [1, 16] was 104 nM.
With `CC[C@@H]1NC(=O)[C@H]([C@H](O)[C@H](C)CC=CCCCOc2cc[n+](CCCc3ccccc3)c3ccccc23)N(C)C(=O)[C@H](C(C)C)N(C)C(=O)[C@H](CC(C)C)N(C)C(=O)[C@H](CC(C)C)N(C)C(=O)[C@@H](C)NC(=O)[C@H](C)NC(=O)[C@H](CC(C)C)N(C)C(=O)[C@H](C(C)C)NC(=O)[C@H](CC(C)C)N(C)C(=O)CN(C)C1=O` [TWH43] the Ki [1, 13] was 218 ± 57 nM and the CRC inhibition % [2] was 16.28%.
`CC[C@@H]1NC(=O)[C@H]([C@H](O)[C@H](C)C/C=C/CCC[n+]2ccc(N3CCCCC3)c3ccccc32)N(C)C(=O)[C@H](C(C)C)N(C)C(=O)[C@H](CC(C)C)N(C)C(=O)[C@H](CC(C)C)N(C)C(=O)[C@@H](C)NC(=O)[C@H](C)NC(=O)[C@H](CC(C)C)N(C)C(=O)[C@H](C(C)C)NC(=O)[C@H](CC(C)C)N(C)C(=O)CN(C)C1=O` [JP1-166] showed a level at time molar at 24 h [4] of 86 nM, a level at 24 h [4] of 124 ng/mL and a hepatocyte CLint [5] of 9.47 µL/min/1e6 cells. The Ki [1, 16] was 31 ± 3 nM, the inhibition at 25 µM ([6]; 25 μM) was 31.4% and the Cl_obs [7] was 1.67 × 10^−04 (mg/kg)/(ng/ml).hour. The fraction unbound [8] was 0.43, the AUC(0-inf) [9] was 59900 ng·h/mL and the AUC(0-t) [9] was 55000 ng·h/mL. The half-life [9] was 6.75 h and the hepatocyte CLint [10] was 8.01 µL/min/1e6 cells.
Molecule `CC[C@@H]1NC(=O)[C@H]([C@H](O)[C@H](C)CC=CCCC[n+]2ccc(NCCc3ccccc3)c3ccccc32)N(C)C(=O)[C@H](C(C)C)N(C)C(=O)[C@H](CC(C)C)N(C)C(=O)[C@H](CC(C)C)N(C)C(=O)[C@@H](C)NC(=O)[C@H](C)NC(=O)[C@H](CC(C)C)N(C)C(=O)[C@H](C(C)C)NC(=O)[C@H](CC(C)C)N(C)C(=O)CN(C)C1=O` [JP1-037H] has a Ki [1, 15] of 17 ± 5 nM and a CRC inhibition % [2] of 26.53%.
Molecule `CC[C@@H]1NC(=O)[C@H]([C@H](O)[C@H](C)C/C=C/CCC[n+]2ccc(N3CCOCC3)c3ccccc32)N(C)C(=O)[C@H](C(C)C)N(C)C(=O)[C@H](CC(C)C)N(C)C(=O)[C@H](CC(C)C)N(C)C(=O)[C@@H](C)NC(=O)[C@H](C)NC(=O)[C@H](CC(C)C)N(C)C(=O)[C@H](C(C)C)NC(=O)[C@H](CC(C)C)N(C)C(=O)CN(C)C1=O` [JP1-141] has a fraction unbound [11] of 0.01, a level at time molar at 24 h [4] of 642 nM and a level at 24 h [4] of 927 ng/mL. For the same molecule, the hepatocyte CLint [5] was 3.59 µL/min/1e6 cells, the Ki [1, 16] was 29 nM and the “hERG (% inhibition at 25 μM)” value ([6]; 25 μM) was 63.9%. For the same molecule, the inhibition at 25 µM ([6]; 25 μM) was 65%, the “Toxicity in the pharmacokinetic experiment” value [7] was “some toxicity” and the Cl_obs [7] was 9.57 × 10^−05 (mg/kg)/(ng/ml).hour. The AUC(0-inf) [9] was 105000 ng·h/mL, the AUC(0-t) [9] was 103000 ng·h/mL and the half-life [9] was 4.04 h. It also gave a hepatocyte CLint [10] of 3.62 µL/min/1e6 cells.
For `CC[C@@H]1NC(=O)[C@H]([C@H](O)[C@H](C)C/C=C/CCC[n+]2ccc(NCCOc3ccccc3)c3ccccc32)N(C)C(=O)[C@H](C(C)C)N(C)C(=O)[C@H](CC(C)C)N(C)C(=O)[C@H](CC(C)C)N(C)C(=O)[C@@H](C)NC(=O)[C@H](C)NC(=O)[C@H](CC(C)C)N(C)C(=O)[C@H](C(C)C)NC(=O)[C@H](CC(C)C)N(C)C(=O)CN(C)C1=O` [JP1-068], the Ki [1, 15] was 10 nM, the IC50 [6] was 1000 to 2000 nM and the level at 1 h ([12]; brain, Brain ng/mL, 1 h) was 110 ng/mL. For the same molecule, the level at 4 h ([12]; brain, Brain ng/mL) was 76 ng/mL, the level at 1 h ([12]; plasma, Plasma (ng/mL), 1 h) was 6410 ng/mL and the level at 4 h ([12]; plasma, Plasma (ng/mL)) was 6250 ng/mL. The “Brain” value ([12]; 1 h) was 110 ng/mL and the Ki ([3]; Table S3, fluorescence polarization, biotinylated-CsA probe, read-out: Ki (nM) CypD) was 38.1 nM.
`CC[C@@H]1NC(=O)[C@H]([C@H](O)[C@H](C)C/C=C/CCC[n+]2ccc(N(C)C)c3ccccc32)N(C)C(=O)[C@H](C(C)C)N(C)C(=O)[C@H](CC(C)C)N(C)C(=O)[C@H](CC(C)C)N(C)C(=O)[C@@H](C)NC(=O)[C@H](C)NC(=O)[C@H](CC(C)C)N(C)C(=O)[C@H](C(C)C)NC(=O)[C@H](CC(C)C)N(C)C(=O)CN(C)C1=O` [JP1-180] showed a level at time molar at 24 h [4] of 142 nM, a level at 24 h [4] of 196 ng/mL and a hepatocyte CLint [5] of 4.07 µL/min/1e6 cells. For the same molecule, the inhibition at 25 µM ([6]; 25 μM) was 9.75%, the Cl_obs [7] was 1.61 × 10^−04 (mg/kg)/(ng/ml).hour and the Ki [3, 14] was 77 ± 46 nM. For the same molecule, the fraction unbound [8] was 0.17, the AUC(0-inf) [9] was 62100 ng·h/mL and the AUC(0-t) [9] was 59300 ng·h/mL. For the same molecule, the half-life [9] was 5.06 h and the hepatocyte CLint [10] was 4.65 µL/min/1e6 cells.
Molecule `CC[C@@H]1NC(=O)[C@H]([C@H](O)[C@H](C)CC=CCCC[n+]2ccc(N(C)CCc3ccccc3)c3ccccc32)N(C)C(=O)[C@H](C(C)C)N(C)C(=O)[C@H](CC(C)C)N(C)C(=O)[C@H](CC(C)C)N(C)C(=O)[C@@H](C)NC(=O)[C@H](C)NC(=O)[C@H](CC(C)C)N(C)C(=O)[C@H](C(C)C)NC(=O)[C@H](CC(C)C)N(C)C(=O)CN(C)C1=O` [JP1-037] has a Ki [1, 15] of 4.4 ± 2 nM and a CRC inhibition % [2] of 20.61%.
For `CC[C@@H]1NC(=O)[C@H]([C@H](O)[C@H](C)CC=CCCC[n+]2ccc(OCc3ccccc3)c3ccccc32)N(C)C(=O)[C@H](C(C)C)N(C)C(=O)[C@H](CC(C)C)N(C)C(=O)[C@H](CC(C)C)N(C)C(=O)[C@@H](C)NC(=O)[C@H](C)NC(=O)[C@H](CC(C)C)N(C)C(=O)[C@H](C(C)C)NC(=O)[C@H](CC(C)C)N(C)C(=O)CN(C)C1=O` [TWH53], the Ki [1, 13] was 158 ± 43 nM and the CRC inhibition % [2] was 18.46%.
`CC[C@@H]1NC(=O)[C@H]([C@H](O)[C@H](C)C/C=C/CCC[n+]2cccc3ccccc32)N(C)C(=O)[C@H](C(C)C)N(C)C(=O)[C@H](CC(C)C)N(C)C(=O)[C@H](CC(C)C)N(C)C(=O)[C@@H](C)NC(=O)[C@H](C)NC(=O)[C@H](CC(C)C)N(C)C(=O)[C@H](C(C)C)NC(=O)[C@H](CC(C)C)N(C)C(=O)CN(C)C1=O` [JW47, reference compound] gave a level at 4 h ([12]; plasma, Plasma (ng/mL)) of 4900 ng/mL.
With `CC[C@@H]1NC(=O)[C@H]([C@H](O)[C@H](C)CC=CCCC[n+]2ccc(OCCOc3ccccc3)c3ccccc32)N(C)C(=O)[C@H](C(C)C)N(C)C(=O)[C@H](CC(C)C)N(C)C(=O)[C@H](CC(C)C)N(C)C(=O)[C@@H](C)NC(=O)[C@H](C)NC(=O)[C@H](CC(C)C)N(C)C(=O)[C@H](C(C)C)NC(=O)[C@H](CC(C)C)N(C)C(=O)CN(C)C1=O` [TWH68] the Ki [1, 13] was 467 ± 85 nM and the CRC inhibition % [2] was 17.71%.
`CC[C@@H]1NC(=O)[C@H]([C@H](O)[C@H](C)C/C=C/CCCOc2cc[n+](CCc3ccccc3)c3ccccc23)N(C)C(=O)[C@H](C(C)C)N(C)C(=O)[C@H](CC(C)C)N(C)C(=O)[C@H](CC(C)C)N(C)C(=O)[C@@H](C)NC(=O)[C@H](C)NC(=O)[C@H](CC(C)C)N(C)C(=O)[C@H](C(C)C)NC(=O)[C@H](CC(C)C)N(C)C(=O)CN(C)C1=O` [TWH46] showed a Ki [1, 13] of 265 ± 111 nM.
